The target in assay [1] is T1, MMP-2 (Homo sapiens, UniProt P08253).
T1 construct: recombinant MMPs (Enzo Life Sciences) (active domains of MMP-1, MMP-2, MMP-3, MMP-7, MMP-8, MMP-9, MMP-10, MMP-11, MMP-12, and MMP-13); purchased Enzo Life Sciences
As to the kind of experiment: In vitro enzymatic validation of FIB One with recombinant MMP-2 (plate reader). In kind it is biochemical. Conditions: MMP 30 nM. The protocol:
(§1) To determine the enzymatic specificity of FIB One, the probe was incubated at a concentration of 1 μM (unless otherwise stated) with the recombinant MMPs (Enzo Life Sciences) (active domains of MMP-1, MMP-2, MMP-3, MMP-7, MMP-8, MMP-9, MMP-10, MMP-11, MMP-12, and MMP-13, all at 30 nM), thrombin (Sigma Aldrich) (5 U/mL), factor Xa (Sigma Aldrich) (500 nM), plasmin (Sigma Aldrich) (30 nM), and human neutrophil elastase (30 nM). Where appropriate, enzymes were incubated with specific inhibitors for 30 min at 37°C prior to addition of FIB One. […] Enzyme free reactions served as a control. Enzymatic reactions were performed in MMP buffer (10 mM CaCl2, 6.1 g Tris-HCl, 8.6 g NaCl per litre, pH 7.5) in a final volume of 20 μL. Reactions were performed in duplicate in 384-well plates (Life Technologies) with optically clear plate seals (Thermo Scientific) and repeated thrice (independently). Fluorescence signal was measured for up to 60 min, ex/em 485/528 nm using microplate reader (BioTek Synergy H1 multimode reader). Data were normalised to buffer alone and are presented as fold-change in signal (relative fluorescent units, RFU) compared to enzyme-free controls. Data were plotted using Prism 7 (GraphPad Software Inc., La Jolla, CA, USA).

Assay [2] has as its target T2, MMP-13 (Homo sapiens, UniProt P45452).
T2 construct: recombinant MMPs (Enzo Life Sciences) (active domains of MMP-1, MMP-2, MMP-3, MMP-7, MMP-8, MMP-9, MMP-10, MMP-11, MMP-12, and MMP-13); purchased Enzo Life Sciences
As to the kind of experiment: In vitro enzymatic validation of FIB One with recombinant MMP-13 (plate reader). In kind it is biochemical. Conditions: MMP 30 nM. As for the experimental part: as §1, with “Fluorescence signal was measured for up to 60 min, ex/em 485/528 nm using microplate reader (BioTek Synergy H1 multimode reader).” left out

The subject of assay [3] is stimulated human neutrophils. As to the kind of experiment: FIB One cleavage in supernatant from stimulated neutrophils. The format is cell-based. Conditions: FIB One 1 μM, 10 min incubation with neutrophil supernatant. The protocol: Neutrophils were isolated from the blood of healthy human volunteers as previously described. The number of retrieved neutrophils was determined with NucleoCounter NC-1000 (Chemo Metec). Neutrophils were resuspended at a concentration of 20×10^6 mL^-1 in 0.9% NaCl with 0.9 mM CaCl2. Cells were incubated for 30 min at 37°C. Cells to be stimulated were subsequently activated with 5 μM calcium ionophore A23187 (Tocris Bioscience) for 30 min at 37°C. Neutrophils were harvested by centrifugation at 400 x g for 5 min. Supernatants were removed and stored. Plate reader assays were performed as described above, with the MMP buffer replaced with neutrophil supernatant. All experiments were carried out in duplicate using three independent donors (one donor per independent repeat). Data were normalised by background subtraction of intrinsic fluorescence.

In assay [4] the test system is MMP-12. Conditions: placebo-controlled, 55 COPD patients; cited from earlier work. The text has this:
(§2) MMP inhibition has been identified as a target for drug interventions in inflammatory diseases. MMP inhibitors used in trials as cancer therapies were disappointing due to lack of efficacy and significant adverse effects. Studies have also been limited by a lack of quantifiable biomarkers to reflect on their in vivo and functional activity. […] It had previously been used in a phase 2A safety and tolerab ...

The target in assay [5] is T3, MMP-9 (Homo sapiens, UniProt P14780).
T3 construct: recombinant MMPs (Enzo Life Sciences) (active domains of MMP-1, MMP-2, MMP-3, MMP-7, MMP-8, MMP-9, MMP-10, MMP-11, MMP-12, and MMP-13); purchased Enzo Life Sciences
T3 sequence (P14780 107-444 limits assumed): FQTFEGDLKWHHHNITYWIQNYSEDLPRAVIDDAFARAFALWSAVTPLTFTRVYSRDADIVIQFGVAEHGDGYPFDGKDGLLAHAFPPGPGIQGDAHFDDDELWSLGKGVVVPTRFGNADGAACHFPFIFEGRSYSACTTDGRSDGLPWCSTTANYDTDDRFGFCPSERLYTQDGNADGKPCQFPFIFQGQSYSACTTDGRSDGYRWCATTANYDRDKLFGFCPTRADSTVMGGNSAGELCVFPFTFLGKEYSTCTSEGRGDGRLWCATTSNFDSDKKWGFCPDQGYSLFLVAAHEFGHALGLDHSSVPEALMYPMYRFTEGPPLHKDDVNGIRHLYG
Conditions: placebo-controlled, 55 COPD patients; cited from earlier work.
From the text: as §2

The test system of assay [6] is emphysema patients. Conditions: 74 emphysema patients, placebo or AZD1236 75 mg twice daily for 6 weeks; cited from earlier work.
From the text: as §2

Setting [7] is: FIB One 1 μM, MMP buffer pH 7.5, ex/em 485/528 nm, fold-change vs enzyme-free control, n=3 in duplicate.
Setting [8] is: AZD1236 0.11-14 µM, FIB One 1 µM.

T1 sequence (P08253 110-446 limits assumed): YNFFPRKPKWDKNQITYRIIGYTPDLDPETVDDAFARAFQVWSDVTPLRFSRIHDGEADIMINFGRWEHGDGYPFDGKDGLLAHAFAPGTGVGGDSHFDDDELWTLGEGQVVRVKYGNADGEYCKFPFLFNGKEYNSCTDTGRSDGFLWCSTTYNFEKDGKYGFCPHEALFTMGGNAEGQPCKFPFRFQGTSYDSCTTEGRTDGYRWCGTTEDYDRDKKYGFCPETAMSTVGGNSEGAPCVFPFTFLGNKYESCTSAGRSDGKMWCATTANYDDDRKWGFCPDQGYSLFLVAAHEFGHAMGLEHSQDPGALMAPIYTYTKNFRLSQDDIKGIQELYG

For the substance (Pro-Phe-Gly-Nle-Lys-βAla)3 [FIB One], the “fluorescent amplification of FIB One on exposure to enzyme” value is “rapid and specific fluorescent amplification” in assay [1] (setting [7]); “rapid and specific fluorescent amplification” in assay [2] (setting [7]). Further, the “signal amplification compared with analogous monomeric linear structure (FRET-monomer)” value in assay [2] (probes 1 µM, 10 min incubation, n=3 in duplicate) is on record as “improved signal amplification”. In assay [3], the “cleavage of FIB One” value was “cleaved”.
As to AZD1236, the “inhibition of MMP” value in assay [1] (setting [8]) and in assay [2] (setting [8]) was “ability to inhibit” in each case. In assay [4], the “MMP-12 inhibition in induced sputum” value is on record as “failed to demonstrate”. Besides, the “MMP-9 inhibition in induced sputum” value in assay [5] is “failed to demonstrate”. For the same substance, the “effect on the secondary lung physiology endpoints” value in assay [6] is “no effect”.
